Laboratory results taken from US5373020A, “Substituted 5-(2-((2-aryl-2-hydroxyethyl)amino)propyl)-1,3-benzodioxoles” (American Cyanamid Company, priority 1993, dated 1994).

What was measured:
db/db mice = test: Plasma glucose, compound in chow, diabetic mice; assay type: in vivo, mouse (C57 B1/KsJ db/db)
Experimental: (§1) The compounds of this invention were tested for hypoglycemic and anti-obesity activity according to the following procedure.
(§2) Obese mice (C57 B1/6J (ob/ob)), and/or diabetic mice (C57 B1/KsJ (db/db)) were obtained from Jackson Laboratories, Bar Harbor, Maine. Obese rats (fa/fa) were obtained from Charles River Laboratories, Wilmington, Mass. Obese mice were 8 weeks of age and diabetic mice were 9 weeks of age at the start of the test. Obese rats were 12-14 weeks of age at the start.
(§3) The test compounds were dissolved in methanol, mixed with powdered Purina rodent chow on a weight of compound to weight of chow basis and thoroughly dried.
(§4) Groups of 6 control mice or rats received vehicle (methanol) treated chow.
(§5) Groups of 6 test mice were fed ad libitum for up to seven weeks and food consumption was measured daily by weighing the food bins before and after the addition of fresh chow. Thus, a 40 g mouse, fed the test compound at a concentration of 0.02 percent of the diet, would receive a dose of 20 mg/kg/day if it ate 4 g of chow per day.
(§6) The mice or rats were weighed before the first treatment and once at the end of each indicated treatment period.
(§7) Blood samples were collected before the first treatment and once at the end of each indicated treatment period by retro-orbital puncture using heparinized capillary tubes.
(§8) Plasma was separated by centrifugation in a Beckman microfuge for 5 minutes. Plasma glucose concentrations were determined with the Beckman glucose analyzer which uses a glucose oxidase method.

ob/ob mice [1] = test: Change in weight and food consumption, compound in chow, obese mice; assay type: in vivo, mouse (C57 B1/6J ob/ob)
Experimental: as §1, §2, §3, §4, §5, §6

β1-receptors = biological target: T1, β1-receptors (Cavia porcellus, UniProt H0W3H1); test: Effect on heart rate of isolated right atria (β1-effect); set-up: species or system guinea pig
T1 construct: from tissue; host or cells: guinea pig right atria
Experimental: (§9) β-Adrenergic receptors can be divided into β1, β2 and β3 -subtypes. Activation of β1 -receptors invokes increases in heart rate while activation of β2 -receptors stimulates glycogen breakdown in muscle and thereby prevents glycogen synthesis. Activation of β3 -receptors stimulates lipolysis (the breakdown of adipose tissue triglycerides to glycerol and free fatty acids), and thereby promotes the loss of fat mass.
Selectivity of a compound was determined using the following procedures. The effect on heart rate (β1 -effect) was determined using isolated right atria. […] The right atria were dissected and clamped at one end to a tissue holder and electrode assembly (MRA Corp.) and tied at the other end to a force-displacement transducer (Gould-Statham, Burco). The tissues were maintained at 32° C. in a 50 ml capacity glass chamber (MRA Corp.) preloaded with 0.5 g tension. Heart rate was monitored by a Grass polygragh. […] The increase in heart rate was calculated and considered to be the maximum response for that tissue. The tissues were then washed and allowed to equilibrate for 90 minutes. Cumulative concentration-response curves were then determined for each compound or vehicle. All responses were measured 5 minutes post-exposure.

ob/ob mice [2] = test: Plasma glucose, compound in chow, obese mice; assay type: in vivo, mouse (C57 B1/6J ob/ob)
Experimental: as §1, §2, §3, §4
[…] Thus, a 40 g mouse, fed the test compound at a concentration of 0.02 percent of the diet, would receive a dose of 20 mg/kg/day if it ate 4 g of chow per day.
as §6, §7, §8

β3-receptors = biological target: T2, β3-receptors (Rattus norvegicus, UniProt P26255); test: Stimulation of adipocyte lipolysis (β3-effect); assay type: cell-based; conditions: CL1 vs BRL1 (FIG. 1), CL2 vs BRL2 (FIG. 2)
T2 construct: Rat epididymal fat pads were excised and placed in 0.9% saline; from tissue; host or cells: collagenase-isolated adipocytes from rat epididymal fat pads
Experimental: as §9
The β3 -effect of the compounds was determined by their ability to stimulate adipocyte lipolysis. Rat epididymal fat pads were excised and placed in 0.9% saline. Four grams of tissue were transferred to a flask with 20 ml of aerated Krebs-Henseleit bicarbonate (KHB) buffer containing 3% fatty acid-free bovine serum albumin to which 75 mg of crude bacterial collagenase (Worthington) had been added. The tissue was incubated for about 45 minutes at 37° C. with gentle shaking. The cells were then washed three times with two volumes of KHB buffer, filtered through two layers of gauze, and brought to a final volume of 80 ml with KHB buffer. One ml aliquots of the cell suspension were added to plastic test tubes containing the appropriate additions of vehicle or compound. The cells were gassed for 1 minute with 95% O2 -5% CO2, capped, and incubated at 37° C. with continuous shaking for a total of 30 minutes. The reaction was stopped by adding 0.1 ml of 30% perchloric acid and 0.1 ml of chloroform. After centrifugation, 0.5 ml of supernatant was transferred to another test tube and neutralized with 0.04 ml of 3M K2 CO3 -0.5M triethanolamine. The amount-of glycerol generated from the hydrolysis of endogenous triglycerides was determined in a coupled-enzyme spectrophotometric assay. […] The test tubes were incubated for 40 minutes at 37° C. with constant shaking. […] This value was corrected for the amount of NADH generated in the absence of glycerol by incubating another aliquot of the neutralized extract with the same assay mixture but without glycerokinase.

β2-receptors = biological target: T3, β2-receptors (Mus musculus, UniProt P18762); test: Inhibition of insulin-mediated incorporation of 14C-glucose into glycogen in isolated soleus muscle (β2-effect)
T3 construct: Soleus muscle from mice were dissected; from tissue; host or cells: mouse soleus muscle
Experimental: as §9
The β2 -effect of the compounds was determined by their ability to inhibit the insulin-mediated incorporation of ^14 C-glucose into glycogen in isolated muscle. Soleus muscle from mice were dissected, tied at each end, and placed in a clamp to maintain tension. The clamped muscle was added to a vial that contained 2 ml of KHB with 1.5% bovine serum albumin, 0.3 mU/ml insulin, 5 mM (U^-14 C) glucose, and the appropriate additions of compound or vehicle. The vial was gassed with 95% O2 -5% CO2, capped, and the tissue incubated for one hour in a rotating water bath at 37° C. The muscle was then removed, rinsed in ice-cold saline, blotted and weighed. It was then added to 1 ml of 30% KOH containing 5 mg/ml of oyster glycogen, boiled for 10 minutes, and 0.4 ml of 2% Na2 SO4 and 3.2 ml of 100% ethanol added. After standing overnight at 4° C., the glycogen was pelleted by centrifugation, washed once with 66% ethanol, and repelleted. The pellet was dissolved in 1 ml of water and the amount of radioactivity present determined by liquid scintillation.

[3] = dose 0.002 % wt of chow, week 0 (before treatment)
[4] = dose 0.002 % wt of chow, week 1
[5] = dose 0.005 % wt of chow, week 0 (before treatment)
[6] = dose 0.005 % wt of chow, week 1
[7] = dose 0.002 % wt of chow, week 4
[8] = dose 0.005 % wt of chow, week 4
[9] = CL1 vs BRL1 (FIG. 1), CL2 vs BRL2 (FIG. 2)

T1 sequence (H0W3H1 1-470): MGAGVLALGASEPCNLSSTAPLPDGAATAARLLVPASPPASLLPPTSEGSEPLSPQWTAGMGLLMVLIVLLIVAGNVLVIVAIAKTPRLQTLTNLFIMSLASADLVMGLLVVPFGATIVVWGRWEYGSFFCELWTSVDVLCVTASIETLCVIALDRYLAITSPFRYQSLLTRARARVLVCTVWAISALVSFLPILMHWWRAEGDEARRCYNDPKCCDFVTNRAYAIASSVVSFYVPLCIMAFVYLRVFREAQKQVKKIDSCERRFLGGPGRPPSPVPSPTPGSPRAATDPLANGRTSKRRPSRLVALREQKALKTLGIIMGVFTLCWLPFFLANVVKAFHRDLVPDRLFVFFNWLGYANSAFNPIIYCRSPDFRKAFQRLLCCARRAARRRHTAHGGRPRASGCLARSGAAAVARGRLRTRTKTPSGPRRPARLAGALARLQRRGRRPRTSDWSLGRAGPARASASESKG
T3 sequence (P18762 whole entry): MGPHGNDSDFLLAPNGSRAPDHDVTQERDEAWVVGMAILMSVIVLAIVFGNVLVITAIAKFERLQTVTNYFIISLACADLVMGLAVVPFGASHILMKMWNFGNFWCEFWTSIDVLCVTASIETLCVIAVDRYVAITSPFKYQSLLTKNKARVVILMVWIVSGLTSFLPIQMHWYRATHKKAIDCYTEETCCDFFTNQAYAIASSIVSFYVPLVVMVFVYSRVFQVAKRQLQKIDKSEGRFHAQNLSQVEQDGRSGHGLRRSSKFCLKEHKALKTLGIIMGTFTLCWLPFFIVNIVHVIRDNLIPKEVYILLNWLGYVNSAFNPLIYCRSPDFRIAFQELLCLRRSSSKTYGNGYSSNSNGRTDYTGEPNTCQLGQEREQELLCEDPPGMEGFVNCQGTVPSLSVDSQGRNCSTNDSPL
T2 sequence (P26255 whole entry): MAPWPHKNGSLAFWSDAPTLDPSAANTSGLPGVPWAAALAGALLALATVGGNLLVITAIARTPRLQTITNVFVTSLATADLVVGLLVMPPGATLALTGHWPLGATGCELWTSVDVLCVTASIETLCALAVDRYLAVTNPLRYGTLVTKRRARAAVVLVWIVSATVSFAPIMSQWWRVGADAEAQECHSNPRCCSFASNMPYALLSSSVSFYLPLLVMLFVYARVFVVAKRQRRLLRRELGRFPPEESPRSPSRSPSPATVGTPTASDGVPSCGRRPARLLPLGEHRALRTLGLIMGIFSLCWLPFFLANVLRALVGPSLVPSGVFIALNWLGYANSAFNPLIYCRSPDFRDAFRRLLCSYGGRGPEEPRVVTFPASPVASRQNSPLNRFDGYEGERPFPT

C[C@H](Cc1ccc2c(c1)OC(C(=O)[O-])(C(=O)[O-])O2)NC[C@H](O)c1cccc(Cl)c1.[Na+].[Na+] (stereo in doubt) [CL2, (R*,R*)-(±)-5(2-((2-(3-chlorophenyl)-2-hydroxyethyl)amino)propyl)-1,3-benzodioxole-2,2-dicarboxylic acid, disodium salt]
Plasma Glucose Levels (db/db mice; [3]): 453 mg/100 ml
Plasma Glucose Levels (db/db mice; [4]): 236 mg/100 ml
Plasma Glucose Levels (db/db mice; dose 0.002 % wt of chow, week 5): 190 mg/100 ml
Plasma Glucose Levels (db/db mice; dose 0.002 % wt of chow, week 7): 25 mg/100 ml
Plasma Glucose Levels (db/db mice; [5]): 452 mg/100 ml
Plasma Glucose Levels (db/db mice; [6]): 155 mg/100 ml
Plasma Glucose Levels (db/db mice; dose 0.005 % wt of chow, week 5): 145 mg/100 ml
Plasma Glucose Levels (db/db mice; dose 0.005 % wt of chow, week 7): 16 mg/100 ml
Average Daily Food Consumption (ob/ob mice [1]; dose 0.002 % wt of chow): 5.2 g/animal
Change in weight (ob/ob mice [1]; [4]): 1.6 grams
Change in weight (ob/ob mice [1]; dose 0.002 % wt of chow, week 2): 4.1 grams
Change in weight (ob/ob mice [1]; dose 0.002 % wt of chow, week 3): 4.7 grams
Change in weight (ob/ob mice [1]; [7]): 7.3 grams
Average Daily Food Consumption (ob/ob mice [1]; dose 0.005 % wt of chow): 5.9 g/animal
Change in weight (ob/ob mice [1]; [6]): 0.2 grams
Change in weight (ob/ob mice [1]; dose 0.005 % wt of chow, week 2): 1.6 grams
Change in weight (ob/ob mice [1]; dose 0.005 % wt of chow, week 3): 2.4 grams
Change in weight (ob/ob mice [1]; [8]): 4.7 grams
EC50 (β1-receptors): > 1000 µM
β1 activity (β1-receptors; [9]): no measurable β1 activity
Plasma Glucose Levels (ob/ob mice [2]; dose 0.0005 % wt of chow, week 0 (before treatment)): 218 mg/100 ml
Plasma Glucose Levels (ob/ob mice [2]; dose 0.0005 % wt of chow, week 1): 193 mg/100 ml
Plasma Glucose Levels (ob/ob mice [2]; dose 0.0005 % wt of chow, week 4): 240 mg/100 ml
Plasma Glucose Levels (ob/ob mice [2]; [3]): 220 mg/100 ml
Plasma Glucose Levels (ob/ob mice [2]; [4]): 162 mg/100 ml
Plasma Glucose Levels (ob/ob mice [2]; [7]): 197 mg/100 ml
Plasma Glucose Levels (ob/ob mice [2]; [5]): 220 mg/100 ml
Plasma Glucose Levels (ob/ob mice [2]; [6]): 145 mg/100 ml
Plasma Glucose Levels (ob/ob mice [2]; [8]): 165 mg/100 ml
β3 potency in comparison (β3-receptors): slightly greater β3 potency than does BRL2
EC50 (β2-receptors): > 100 µM
β2 activity (β2-receptors; [9]): only minimal β2 activity at 1×10^-4 M
